Data set [1] has as its system Fibroblast Swiss-3t3 cells. Kind of data set: Cell growth inhibition, non-tumorigenic Swiss-3t3. The format is cell-based, mice. Conditions: Mus musculus, maximum 25 µM, quadruplicate. On the procedure:
(§1) The anti-proliferative activity of the title compounds 3a-e, 5a-e, 7a-c, and 10a-l towards cancer cell lines, normal cell lines, and multidrug-resistant lung cancer NCI-H69AR cell line was determined using CellTiter-Glo™ Luminescent cell viability assay according to the previously published procedures[14]^,[15].
(§2) The cell growth inhibitory activity of compounds 7b and 10e was examined towards three non-tumorigenic cell lines to estimate their selectivity for tumor cells. A-549 human non-small cell lung cancer (NSCLC) cell line was included in the assay for comparison. […] IEC-6 cells derived from rat intestine show morphologic and karyotypic features of normal intestinal epithelial cells. Fibroblasts derived from embryonic tissue from mice (Swiss-3t3) are both non-tumorigenic and contact inhibited. Compounds 7b and 10e were tested quadruplicate at maximum concentrations of 25 µM, with subsequent 10 serially diluted concentrations.

Data set [2] concerns A-549 cells. Kind of data set: Cell cycle distribution by DNA content. The class given is cell-based, human. The method, then: (§3) Cell cycle effects of the synthesised compounds 7b and 10e were determined adopting the reported procedures[14]^,[15].
(§4) In this study, cancer cells derived from lung adenocarcinoma (A-549) were used to evaluate the effects of compounds 7b and 10e on various aspects of the cell cycle progression. Both immunofluorescent imaging of phosphorylated Rb protein and total DNA content of each cell were explored to determine the activity of compounds 7b and 10e over a range of concentrations less than 100 nM to 50 µM (Figures 3–5).
Figure 3. Effects on number and cell cycle distribution. A-549 cells were treated with dose curve. Compound 7b (left) or 10e (right). Cell number per cell cycle was determined by DNA content by DAPI fluorescent labeling and imaging cytometry following 48 h treatment.

Data set [3] has as its system A-549, ZR-75 and HT-29 cell lines. Nature of the data set: Average anti-proliferative activity over the three cancer cell lines. The format is cell-based, human. The settings on record: average over A-549, ZR-75, HT-29; for Average growth inhibition % / inhibition at 30 µM: 30 µM; for inhibition at 30 µM / IC50: Homo sapiens; for inhibition at 30 µM: read-out: Average growth inhibition %. On the procedure:
as §1
(§5) The cancer cell growth inhibitory activity of the synthesised 25 compounds 3a-e, 5a-e, 7a-c, and 10a-l was evaluated in vitro towards three human cancer cell lines, namely lung cancer A-549, human colon cancer HT-29, and breast cancer ZR-75 cell lines using CellTiter-Glo™ Luminescent cell viability assay. Sunitinib was included in this assay as a reference drug.
(§6) The prepared hydrazonoindolin-2-ones were first evaluated at preliminary anti-proliferative assay against the three cancer cell lines in quadruplicate at a single concentration of 30 µM. The data presented as percentage growth inhibition (GI%) caused by the test compounds (Table 1).

Data set [4] deals with IEC-6, MCF-10A, Swiss-3t3 vs A-549 cell lines. Kind of data set: Mean tumor selectivity index, non-tumorigenic lines vs A-549. The class given is cell-based. The settings on record: non-tumorigenic IEC-6, MCF-10A.
Text: as §2

In data set [5] the test system is colon cancer HT-29 cell line. Nature of the data set: CellTiter-Glo Luminescent cell viability assay, anti-proliferative activity, HT-29. The format is cell-based. Conditions: Homo sapiens, mean ± SD of four separate experiments. On the technique in general: Cellular ATP, detected with luciferase, serves as a proxy for viable cell number.
The next data set relates to Intestine IEC-6 cells. Nature of the data set: Cell growth inhibition, non-tumorigenic IEC-6. The class given is cell-based. The settings on record: Rattus norvegicus, maximum 25 µM, quadruplicate. The method, then: as §1, §2
In data set [6] the test system is colon cancer HT-29 cell line. Nature of the data set: CellTiter-Glo Luminescent cell viability assay, anti-proliferative activity, HT-29. Conditions: Homo sapiens, HT-29; 30 µM single concentration, quadruplicate; read-out: Growth inhibition % HT-29. The format is cell-based, human. On the procedure:
as §1, §5, §6

Data set [7] concerns breast cancer ZR-75 cell line. Kind of data set: CellTiter-Glo Luminescent cell viability assay, anti-proliferative activity, ZR-75. The format is cell-based, human. Conditions: Homo sapiens, ZR75, mean ± SD of four separate experiments.
Data set [8] has as its system A-549 cells. Kind of data set: Reduction in total cell number, DAPI labeling and imaging cytometry. The settings on record: Homo sapiens, A549. The format is cell-based. The method, then:
as §3, §4
Figure 3. Effects on number and cell cycle distribution. A-549 cells were treated with dose curve. Compound 7b (left) or 10e (right). […]

Data set [9] relates to lung cancer A-549 cell line. Kind of data set: CellTiter-Glo Luminescent cell viability assay, anti-proliferative activity, A-549. The class given is cell-based, human. Conditions: Homo sapiens; for inhibition at 30 µM: A549, 30 µM single concentration, read-out: Growth inhibition % A-549. The method, then:
as §1, §5, §6

In data set [10] the test system is breast cancer ZR-75 cell line. Kind of data set: CellTiter-Glo Luminescent cell viability assay, anti-proliferative activity, ZR-75. The format is cell-based. The settings on record: Homo sapiens, ZR75; 30 µM single concentration, quadruplicate; read-out: Growth inhibition % ZR-75. On the procedure: as §1, §5, §6
Data set [11] has as its system phosphorylated retinoblastoma (Rb) protein in A-549 cells. Kind of data set: Immunofluorescent imaging of phosphorylated Rb protein. Conditions: for levels of phosphorylated Rb protein: A-549, less than 100 nM to 50 µM; for IC50: Homo sapiens, A549. The format is cell-based, human. On the procedure:
as §3, §4

The subject of another data set is Breast MCF-10A cells. Nature of the data set: Cell growth inhibition, non-tumorigenic MCF-10A. Conditions: Homo sapiens, maximum 25 µM, quadruplicate. The format is cell-based. On the procedure: as §1, §2
Data set [12] has as its system NCI-H69AR cell line (expresses ABCC1 efflux pump). Nature of the data set: Growth inhibition of multidrug resistant lung cancer cell line. The format is cell-based. On the procedure: as §1
The anti-proliferative activity of compounds 7b and 10e was evaluated towards multidrug resistant lung cancer cell line (NCI-H69AR), which expresses the ABCC1 efflux pump protein. […] Furthermore, the H69AR cells manifested a lesser degree of resistance to the reference drug, Sunitinib (1.9-fold less sensitive).

The mark [13] stands for this setting: A-549, 24 h treatment, read-out: IC50 for reductions in the total cell number, 24 h.
Where [14] appears, read: A-549, 48 h treatment, read-out: IC50 for reductions in the total cell number, 48 h.
The mark [15] stands for this setting: A549, mean ± SD of four separate experiments, read-out: IC50 A-549.
Setting [16] is: A549, selectivity assay, maximum 25 µM, quadruplicate, read-out: IC50 NSCLC A-549.
Where [17] appears, read: A549, sensitive line in comparison with resistant NCI-H69AR, read-out: IC50 Sensitive A-549.
[18] abbreviates: A-549, 24 h treatment, read-out: IC50 for reduction in Rb phosphorylation, 24 h.
Setting [19] is: A-549, 48 h treatment, read-out: IC50 for reduction in Rb phosphorylation, 48 h.

As a reminder, the IC50 is the concentration at which inhibition is half-maximal. Usually inhibition stands for the relative decrease from the control value, in per cent. Broadly, the melting point is the temperature, or range, at which the solid turns liquid.

“Also recorded” adds a separate entry of the source. Read-outs that look alike come from different tables or passages of the source.

`O=C1Nc2ccc(Cl)cc2C1=NNc1nc(-c2ccccc2)cs1` [Compound 10e, 5-Chloro-3–(2-(4-phenylthiazol-2-yl)hydrazono)indolin-2-one] came in with a melting point of 292 to 294 °C. The compound further displayed an IC50 in data set [1] of 8.51 ± 1.01 µM. In addition, the Cell cycle effects entry in the data set on A-549 cells [2] is “increase in the percentage of cells in the G1 phase of the cell cycle with corresponding decreases in S- and G2/M phases; also recorded: G1 increased and G2/M-phases decreased”. Besides, in data set [3], the “Average growth inhibition %” value amounted to 85.1%, the inhibition at 30 µM was more than 80% and it took 4.66 µM to reach half-maximal inhibition (IC50). The same compound returned a Mean tumor selectivity in data set [4] of 1.8. This compound had an IC50 in data set [5] of 7.25 ± 0.83 µM. Moreover, the IC50 with Intestine IEC-6 cells was 8.98 ± 1.25 µM. The inhibition at 30 µM in data set [6] is 85.7 ± 10.2%. In [7], this compound registered an IC50 of 1.95 ± 1.03 µM. Moreover, in the data set on A-549 cells [8] (setting [13]), the IC50 was 7.38 ± 1.04 µM. In the data set on A-549 cells [8] (setting [14]), the IC50 stood at 7.27 ± 1.15 µM. Also, the IC50 in [9] (setting [15]) came out at 4.79 ± 0.45 µM. In addition, in [9] (setting [16]), the IC50 worked out at 4.13 ± 0.61 µM. Besides, the IC50 in data set [9] (setting [17]) is 4.1 ± 0.61 µM. Besides, the inhibition at 30 µM in data set [9] (quadruplicate) worked out at 80.4 ± 6%. Besides, the inhibition at 30 µM in [10] stood at 89.3 ± 7.2%. For the same compound, the “levels of phosphorylated Rb protein” value in data set [11] is recorded as “significantly reduced in a dose-dependent manner”. Also, the IC50 in data set [11] (setting [18]) was determined as 7.59 ± 0.38 µM. For the same compound, the IC50 in data set [11] (setting [19]) is 12.5 ± 2.1 µM. The compound also registered an IC50 in the data set on Breast MCF-10A cells of 5.37 ± 0.61 µM. For the same compound, the IC50 in data set [12] was found to be 16 µM.
Regarding `CCN(CC)CCNC(=O)c1c(C)[nH]c(/C=C2\C(=O)Nc3ccc(F)cc32)c1C` [Sunitinib, reference compound], in the data set on A-549 cells [2], the Cell cycle effects entry is “G1 decreased and G2/M-phases increased”. In addition, the inhibition at 30 µM in data set [3] amounted to 78.7%; in data set [6] it was 85.7 ± 2.7%; in data set [9] (quadruplicate), 59.5 ± 2.3%; in data set [10], 90.7 ± 4.5%. The Mean tumor selectivity in [4] is given as 1.4. Moreover, the IC50 in [5] was 5.87 ± 0.3 µM; in data set [9] (setting [15]), 10.1 ± 0.8 µM; in data set [9] (setting [16]), 3.06 ± 0.9 µM; in [9] (setting [17]), 3.1 ± 0.9 µM; in data set [11] (setting [18]), 3.18 ± 0.07 µM; in data set [12], 5.8 ± 0.52 µM.
`O=C1Nc2ccc(Cl)cc2C1=NN=Cc1ccn[nH]1` [Compound 7b, 3-(((1H-pyrazol-5-yl)methylene)hydrazono)-5-chloroindolin-2-one] yielded a melting point of more than 300 °C. In addition, in data set [1], the IC50 is 6.85 ± 0.76 µM. Moreover, the Cell cycle effects entry with A-549 cells [2] was “decrease in the percentage of cells in the G1 phase of the cell cycle with corresponding increase in the G2/M-phases; also recorded: G1 decreased and G2/M-phases increased”. Besides, in [3], the “Average growth inhibition %” value stood at 89.6%, the inhibition at 30 µM was more than 80% and half-maximal inhibition (IC50) was put at 2.14 µM. In addition, in data set [4], the Mean tumor selectivity is 1.6. It took 2.75 ± 0.31 µM to reach half-maximal inhibition in data set [5] (IC50). Further, in the data set on Intestine IEC-6 cells, half-maximal inhibition (IC50) required 8.7 ± 4.32 µM. Moreover, the inhibition at 30 µM in [6] was found to be 94.9 ± 1.8%. The compound further displayed a 50% inhibitory concentration (IC50) in data set [7] of 1.37 ± 0.23 µM. The IC50 in the data set on A-549 cells [8] (setting [13]) stood at 12.7 ± 13.6 µM. Besides, in the data set with A-549 cells [8] (setting [14]), the IC50 was 8.08 ± 0.95 µM. Besides, in data set [9] (setting [15]), the IC50 stood at 2.29 ± 0.21 µM. Moreover, the IC50 in [9] (setting [16]) came to 3.84 ± 0.67 µM. Besides, in data set [9] (setting [17]), the IC50 was 3.8 ± 0.67 µM. For the same compound, the inhibition at 30 µM in data set [9] (quadruplicate) was determined as 91.5 ± 1.3%. Further, the inhibition at 30 µM in data set [10] was found to be 82.3 ± 15.2%. In addition, the “levels of phosphorylated Rb protein” value in data set [11] was “significantly reduced in a dose-dependent manner”. Moreover, in data set [11] (setting [18]), the IC50 came to 12.1 ± 0.6 µM. Also, in data set [11] (setting [19]), the IC50 worked out at 13.6 ± 0.6 µM. The same compound came in with an IC50 in the data set with Breast MCF-10A cells of 3.42 ± 0.45 µM. Also, in data set [12], the IC50 was 16 µM.

These data come from article PMC7011955, “Synthesis and biological evaluation of certain hydrazonoindolin-2-one derivatives as new potent anti-proliferative agents” (Journal of Enzyme Inhibition and Medicinal Chemistry, 2018).
